Consider 1 compound from paper PMC4490394 (Scientific Reports, 2015).

Substitutions are numbered along the chain they refer to.

The nature of data set [1]: Pharmacokinetic parameters in mice after 7 days oral dosing. The data set is classed as in vivo. To be noted: male, BALB/c or Balb/cOlaHsd nude, mouse, plasma, 50 mg/kg bid oral. On the procedure: Control mice received vehicle. […] Brain samples (without olfactory bulbs and medulla oblongata) from each group and time point were pooled and homogenized before the analysis. […] Plasma and brain concentration vs. time were evaluated by noncompartmental analysis using WinNonlin® Professional v. 5.2 software (Pharsight Corporation). Brain/plasma ratios were calculated based on AUC0–24 values for plasma and brain.

The target in data set [2] is T1, AR(W741L) (Homo sapiens, UniProt P10275, W742L).
T1 sequence (P10275 1-920 W742L): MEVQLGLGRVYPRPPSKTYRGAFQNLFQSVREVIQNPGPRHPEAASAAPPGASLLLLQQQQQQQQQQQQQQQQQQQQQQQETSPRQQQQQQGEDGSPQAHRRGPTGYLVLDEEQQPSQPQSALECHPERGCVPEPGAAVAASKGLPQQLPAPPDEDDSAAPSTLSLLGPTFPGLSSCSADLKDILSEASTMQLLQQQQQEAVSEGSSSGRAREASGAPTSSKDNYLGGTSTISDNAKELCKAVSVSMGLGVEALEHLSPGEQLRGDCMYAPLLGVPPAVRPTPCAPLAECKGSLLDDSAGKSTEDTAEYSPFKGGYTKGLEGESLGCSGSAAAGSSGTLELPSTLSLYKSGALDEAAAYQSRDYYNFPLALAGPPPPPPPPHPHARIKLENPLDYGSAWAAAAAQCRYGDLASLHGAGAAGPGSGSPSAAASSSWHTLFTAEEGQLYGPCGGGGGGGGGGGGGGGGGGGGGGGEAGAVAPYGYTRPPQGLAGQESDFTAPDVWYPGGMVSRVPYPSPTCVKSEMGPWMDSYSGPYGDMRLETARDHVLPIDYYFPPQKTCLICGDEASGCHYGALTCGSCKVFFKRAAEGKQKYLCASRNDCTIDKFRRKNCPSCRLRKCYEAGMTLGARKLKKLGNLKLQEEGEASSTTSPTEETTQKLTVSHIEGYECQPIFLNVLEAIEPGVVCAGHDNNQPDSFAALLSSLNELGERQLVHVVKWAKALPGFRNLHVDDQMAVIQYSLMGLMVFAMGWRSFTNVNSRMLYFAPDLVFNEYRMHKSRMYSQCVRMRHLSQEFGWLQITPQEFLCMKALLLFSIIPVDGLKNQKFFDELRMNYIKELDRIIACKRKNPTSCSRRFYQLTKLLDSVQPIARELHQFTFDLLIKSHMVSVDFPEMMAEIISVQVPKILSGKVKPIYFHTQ
Experimental: (§1) For one well in a 96-well plate, 190 ng of reporter construct DNA and 10 ng of receptor construct DNA were diluted in Opti-MEM® (Gibco). […] Luciferase activity was measured as described above.

Data set [3] relates to orthotopic VCaP tumors. Briefly: Orthotopic VCaP xenograft, tumor growth. The data set is classed as in vivo, nude mice. The conditions noted are these: 50 mg/kg bid oral, 3 weeks, vs control group. The method, then: One million VCaP cells in 20 μL of RPMI-1640 medium were orthotopically injected into the dorsal prostate lobes of athymic nude male mice (7 weeks old from Harlan Winkelman, France). Tumor growth was followed by measuring serum PSA (ProStatus™ PSA EQM Kits, Wallac, Finland). […] At autopsy, blood samples were collected by heart puncture, clotted overnight at +4 °C, and centrifuged. For serum testosterone determination, 25-μL aliquots were extracted twice with 2 mL of diethyl ether and evaporated under nitrogen to dryness. The residues were reconstituted in PBS and measured using a standard radioimmunoassay as described previously.

Data set [4] relates to DU-145 prostate cancer cells. Nature of the data set: Viability of AR-negative cells (WST-1). It is filed as cell-based, human. The conditions noted are these: increasing concentrations, 4 days. (In general: Formazan colour is commonly taken as a measure of viable cells.)
Data set [5] deals with AR nuclear translocation in HS-HEK293 cells.
Experimental: AR overexpressing HS-HEK293 cells immunolabeled with an AR-antibody were imaged either with a high-content screening (HCS) reader (Cellomics ArrayScan HCS VTI reader, Thermo) or with a confocal microscope (LSM780, Zeiss). HS-HEK293 cells in steroid-free assay medium were plated on poly-D-lysine coated microplates (BD) (HCS reader) or on coverslips (confocal imaging). After a 48-hour incubation, the cells were treated with 0.3 (HCS reader) or 1 μM (confocal imaging) of test compounds together with 0.3 nM testosterone for 5 hours. […] Cells were washed, DNA was labeled with DAPI (Sigma, 1 μg//mL), and images were analyzed with a NucTrans. V3 assay algorithm (Thermo). […] Coverslips were mounted with Vectashield containing DAPI (Vector Laboratories).
Data set [6] has as its target T2, AR(F876L) (Homo sapiens, UniProt P10275, F877L).
T2 sequence (P10275 1-920 F877L): T1 sequence (P10275 1-920 W742L) with L742W, F877L
Experimental: as §1

For data set [7], the system named is PSA. To be noted: chemotherapy-naïve CRPC patients, 700 mg twice daily, ARADES study ref 28; cited from earlier work.
Data set [8] relates to subcutaneous VCaP tumors. Briefly: Castration-resistant VCaP xenograft, tumor volume. The data set is classed as in vivo, castrated nude mice. The conditions noted are these: 37 days.
Data set [9] concerns VCaP cells. Nature of the data set: VCaP proliferation assay (WST-1). It is filed as cell-based. To be noted: Homo sapiens, 96 h, 0.1 nM mibolerone, steroid-depleted medium, 4 days, WST-1, read-out: IC50, androgen-induced VCaP cell proliferation.
Experimental: VCaP cells were treated with a submaximal concentration of mibolerone (0.1 nM) and increasing concentrations of test compounds in steroid-free assay medium supplemented with 4 mM GlutaMAX. After a 4-day incubation with the compounds, cell viability was measured using a WST-1 cell proliferation assay (Roche), according to manufacturer’s instructions.
The subject of data set [10] is H1581 lung cancer cells. Nature of the data set: Viability of AR-negative cells (WST-1). It is filed as cell-based, human. The conditions noted are these: increasing concentrations, 4 days.

`CC(O)c1cc(C(=O)N[C@@H](C)Cn2ccc(-c3ccc(C#N)c(Cl)c3)n2)[nH]n1` (stereo partly drawn) [ODM-201]: the AUC in [1] (read-out: AUC24) was found to be 175 µg·h/mL. Also, the half-life in data set [1] (read-out: T 1/2 (plasma half-life) (converted)) is 1.6 h. Besides, the “functional activity (agonist/antagonist) on AR(W741L)” value in data set [2] was “full antagonists”. The “orthotopic VCaP tumor growth” value in [3] is “inhibited tumor growth significantly”. Further, the “effect on viability of DU-145 cells” value in [4] is “no effect”. Besides, the “effect on testosterone-induced nuclear translocation of AR” value in data set [5] is on record as “inhibit”. Also, the “functional activity (agonist/antagonist) on AR(F876L)” value in [6] was “full antagonists”. The “PSA response (50% or greater decrease), share of patients” value in data set [7] was 86%. For the same compound, the “antitumor activity (tumor volume)” value is “significant antitumor activity” in [8] (50 mg/kg oral once daily, vs castrated untreated mice) and “significant antitumor activity” in [8] (50 mg/kg oral twice daily, p < 0.001 vs castrated untreated mice, p = 0.0245 vs enzalutamide). The IC50 in data set [9] amounted to 0.23 µM. In data set [10], the “effect on viability of H1581 cells” value was “no effect”.
